In patent US20230285570A1, “THERAPEUTICALLY USEFUL CURE-PRO MOLECULES FOR E3 LIGASE MEDIATED DEGRADATION OF PROTEINS, AND METHODS OF MAKING AND USING THEM” (CORNELL UNIVERSITY, priority 2020, published 2023):
Entries after “also recorded” stand apart in the source; their conditions may differ.

Key:
BRD4 [1] = biological target: T1, BRD4 (Homo sapiens, UniProt O60885); experiment: Summary of BRD4 degradation by CURE-PRO pairs, estimated from Western Blot or WES; type: cell-based; design: endogenous in cells; details: for Degradation of BRD4, combination with CRBN ligand 8066: Table 1, aryl-boronic acid BRD4 ligand + 8066; for Degradation of BRD4, combination with CRBN ligand 8047: Table 1, aryl-boronic acid BRD4 ligand + 8047; for Degradation of BRD4, combination with CRBN ligand 8046: Table 1, aryl-boronic acid BRD4 ligand + 8046; for Degradation of BRD4, combination with VHL ligand 8305: Table 3, aryl-boronic acid BRD4 ligand + 8305
Protocol: (§1) Namalwa, Ramosm HeLa, MCF7, or HT29 HCT116 cells (2.5-3×10^6) were treated for 24 hours with the indicated compounds solubilized in DMSO. The cells were washed in ice-cold PBS and were then lysed in RIPA lysis buffer (150 mM NaCl, 5 mM EDTA, 1% NP-40, 0.5% sodium deoxycholate, 0.1% SDS, 50 mM Tris, pH 8.0.) with Roche protease inhibitor complete cocktail and phosphatase inhibitors (10 mM sodium fluoride, 10 mM sodium pyrophosphate, 1 mM sodium orthovanadate and 20 mM β-glycerophosphate). The total protein concentrations were determined by Bradford Protein Assay (Pierce) and 10-20 μg of protein was loaded onto 4-15% Tris-Glycine gradient gels (Biorad). After standard gel electrophoresis, the separated proteins were transferred to PVDF membrane by wet transfer. The immunoblots were then blocked for 1 hour in 5% skim milk in TBST or 5% BSA in TBST, according to manufacturer's instructions, before an overnight incubation at 4° C. with indicated antibodies and membranes. Membranes were then incubated with the appropriate horseradish peroxidase-conjugated secondary antibodies (1:5,000 dilution) for 1 h at room temperature and the bands were visualized using the Clarity Max Western ECL Substrate (Biorad) and the ChemiDoc Imaging System (Biorad). Signal was detected with ECL Western Blotting Substrate (Pierce) and X-ray film processed with a Konica SRX-101 X-ray film processor or captured by Bio-Rad's Chemidoc Imaging system.
WES Simple analysis was performed on WES system (ProteinSimple-Biotechne) according to the manufacturer's instructions. Total protein concentrations of cell lysates were determined by the Pierce BCA kit (Thermo Fisher). 3 μL of 0.3 μg/μL of the protein lysate was loaded onto a 12- to 230-kDa WES assay plate (ProteinSimple) where 300 nL sample was withdrawn through a capillary, subjected to electrophoretic separation of proteins by size, and followed by the simultaneous, HRP-based detection of proteins using the Anti-Rabbit Detection Module (Proteinsimple: #DM-001). The electropherograms were checked then the automatic peak detection was manually corrected if it was required.
A black check mark indicates efficacy of 30% to 70% or higher protein degradation.

BRD4 [2] = biological target: T1, BRD4; experiment: CURE-PRO-mediated BRD4 degradation in HeLa cells, Western blot; type: cell-based; design: endogenous in cells; host or cells: HeLa; details: 24 h
Protocol: All cell lines were purchased from ATCC or DSMZ and grown at 37° C. with 5% CO2. Human HeLa cells were cultured in complete growth medium (Dulbecco's modified Eagle's medium (DMEM) supplemented with 10% FBS); MCF7 cells were cultured in complete growth medium (Dulbecco's modified Eagle's medium (DMEM) supplemented with 10% FBS and 0.01 mg/ml human recombinant insulin (Sigma Aldrich); Namalwa and Ramos cells were cultured in complete growth medium (RPMI 1640 medium supplemented with 10% FBS); HCT116 and HT29 cells were cultured in complete growth medium (McCoy's 5a Medium supplemented with 10% FBS). For cellular degradation of BRD4 studies cells were seeded in a 12-well plate at 70-80% confluency, allowed to attach overnight, and incubated with the indicated compounds for the indicated time. When indicated, a 15-minute pretreatment with 10 μM pomalidomide, 10 μM VHL298, 10 μM Nutlin3a, 1 μM MG-132 or 1 μM Carfilzomib was performed before the addition of CURE-PROs. For washout studies, after CURE-PRO treatment, media was aspirated and incubated with complete medium for the indicated time before lysis.
as §1
HeLa cells (2.5×10^6) were treated for 24 hours with the sample compounds solubilized in DMSO. Compounds were added at 1-10 μM each. Standardized protein samples were electrophoresed and imaged as described in the immunoblotting description above. FIGS. 6-18 depicts the CURE-PRO-mediated BRD4 degradation for BRD monomers (JQ1 derivatives comprising of catechol linkers), and CRBN ligands, 8048 and 8049 (pomalidomide derivatives comprising boronic acid linkers) combined in a 1:1 ratio.
HeLa cells (2.5×10^6) were treated for 24 hours with the compounds solubilized in DMSO. The compounds were added at 10 μM each. Standardized protein samples were electrophoresed and imaged as described in the immunoblotting section above. FIGS. 23-27 depicts the CURE-PRO-mediated BRD4 degradation for BRD monomers (JQ1 derivatives comprising of boronic acid linkers), and CRBN ligands, 8046, 8047 and 8066 (pomalidomide derivatives comprising diol linkers) combined in a 1:1 ratio.
HeLa cells (2.5×10^6) were treated for 24 hours with the compounds solubilized in DMSO. Compounds were added at 10 μM and 100 μM each. Standardized protein samples were electrophoresed and imaged as described in the immunoblotting section above.
HeLa cells (2.5×10^6) were treated for 24 hours with the compounds solubilized in DMSO. Compounds were added at 1 nM-1 μM each. […]

[3] = co-treated 1:1 with CRBN ligand 8047, HeLa, 10 μM each
[4] = co-treated 1:1 with CRBN ligand 8066, HeLa, 10 μM each

Row | SMILES | Degradation of BRD4, combination with CRBN ligand 8066 (BRD4 [1]) | Degradation of BRD4, combination with CRBN ligand 8047 (BRD4 [1]) | BRD4 degradation (BRD4 [2]; [3]) | further results
1 | COc1ccc2c(c1)C(c1ccc(Cl)cc1)=N[C@@H](CC(=O)NCCCCCNC(=O)c1ccc(B(O)O)cc1)c1nnc(C)n1-2 [BRD- E07] | √ (A black check mark indicates efficacy of 30% to 70% or higher protein degradation) |  |  | 
2 | COc1ccc2c(c1)C(c1ccc(Cl)cc1)=N[C@@H](CC(=O)NCCNC(=O)Cc1cccc(B(O)O)c1)c1nnc(C)n1-2 [BRD- E38] |  | √ (A black check mark indicates efficacy of 30% to 70% or higher protein degradation) |  | 
3 | CCNC(=O)C[C@@H]1N=C(c2ccc(Cl)cc2)c2cc(OCCOCCNC(=O)c3ccc(B(O)O)cc3)ccc2-n2c(C)nnc21 [BRD- E39] |  |  |  | Degradation of BRD4, combination with CRBN ligand 8046 (BRD4 [1]): √ (A black check mark indicates efficacy of 30% to 70% or higher protein degradation)
4 | CCNC(=O)C[C@@H]1N=C(c2ccc(OCc3ccc(B(O)O)cc3)cc2)c2cc(OC)ccc2-n2c(C)nnc21 [BRD- E54] |  |  |  | Degradation of BRD4, combination with VHL ligand 8305 (BRD4 [1]): √ (A black check mark indicates efficacy of 30% to 70% or higher protein degradation)
5 | CCNC(=O)C[C@@H]1N=C(c2ccc(Cl)cc2)c2cc(OCCOCCOCCNC(=O)c3ccc(O)c(O)c3)ccc2-n2c(C)nnc21 [BRD- N40] |  |  |  | Degradation of BRD4, combination with VHL ligand 8297 (BRD4 [1]; Table 6, aromatic 1,2-diol BRD4 ligand + 8297): √ (A black check mark indicates efficacy of 30% to 70% or higher protein degradation)
6 | COc1ccc2c(c1)C(c1ccc(Cl)cc1)=N[C@@H](CC(=O)Nc1ccc(O)c(O)c1)c1nnc(C)n1-2 [BRD- N68] |  |  |  | Degradation of BRD4, combination with CRBN ligand 8048 (BRD4 [1]; Table 4, aromatic 1,2-diol BRD4 ligand + 8048): √ (A black check mark indicates efficacy of 30% to 70% or higher protein degradation)
7 | COc1ccc2c(c1)C(c1ccc(Cl)cc1)=N[C@@H](CC(=O)NCCCNC(=O)c1cccc(B(O)O)c1)c1nnc(C)n1-2 [BRD-E4] | √ (A black check mark indicates efficacy of 30% to 70% or higher protein degradation) | √ (A black check mark indicates efficacy of 30% to 70% or higher protein degradation) | causes degradation of BRD4; also recorded: Degradation is noted | BRD4 degradation (BRD4 [2]; co-treated 1:1 with CRBN ligand 8046, HeLa, 10 μM each): causes degradation of BRD4; also recorded: Degradation is noted; BRD4 degradation (BRD4 [2]; [4]): causes degradation of BRD4; also recorded: Degradation is noted; Degradation of BRD4, combination with CRBN ligand 8046 (BRD4 [1]): √ (A black check mark indicates efficacy of 30% to 70% or higher protein degradation)
8 | COc1ccc2c(c1)C(c1ccc(Cl)cc1)=N[C@@H](CC(=O)NCCCCNC(=O)c1ccc(B(O)O)cc1)c1nnc(C)n1-2 [BRD-E5] | √ (A black check mark indicates efficacy of 30% to 70% or higher protein degradation) | √ (A black check mark indicates efficacy of 30% to 70% or higher protein degradation) | causes degradation of BRD4; also recorded: Degradation is noted | BRD4 degradation (BRD4 [2]; [4]): causes degradation of BRD4; also recorded: Degradation is noted
9 | COc1ccc2c(c1)C(c1ccc(Cl)cc1)=N[C@@H](CC(=O)NCc1cccc(B(O)O)c1)c1nnc(C)n1-2 [BRD-E10] |  | √ (A black check mark indicates efficacy of 30% to 70% or higher protein degradation) |  | BRD4 degradation (BRD4 [2]; 1:1 with CRBN ligand 8046, HeLa, 10 μM and 100 μM each): only demonstrated BRD4 degradation at 100 μM; BRD4 degradation (BRD4 [2]; 1:1 with CRBN ligand 8047, HeLa, 10 μM and 100 μM each): complete degradation at 10 μM; Degradation of BRD4, combination with CRBN ligand 8046 (BRD4 [1]): √ (A black check mark indicates efficacy of 30% to 70% or higher protein degradation); Degradation of BRD4, combination with VHL ligand 8304 (BRD4 [1]; Table 3, aryl-boronic acid BRD4 ligand + 8304): √ (A black check mark indicates efficacy of 30% to 70% or higher protein degradation)
10 | COc1ccc2c(c1)C(c1ccc(Cl)cc1)=N[C@@H](CC(=O)NCCNC(=O)Cc1ccc(B(O)O)cc1)c1nnc(C)n1-2 [BRD-E27, (4-(2-((2-(2-((4S)-6-(4-chlorophenyl)-8-methoxy-1-methyl-4H-benzo[f][1,2,4]triazolo[4,3-a][1,4]diazepin-4-yl)acetamido)ethyl)amino)-2-oxoethyl)phenyl)boronic Acid] |  | √ (A black check mark indicates efficacy of 30% to 70% or higher protein degradation) | causes degradation of BRD4 | 
11 | COc1ccc2c(c1)C(c1ccc(Cl)cc1)=N[C@@H](CC(=O)NCCNC(=O)/C=C/c1cccc(B(O)O)c1)c1nnc(C)n1-2 [BRD-E30, (3-((E)-3-((2-(2-((4S)-6-(4-chlorophenyl)-8-methoxy-1-methyl-4H-benzo[f][1,2,4]triazolo[4,3-a][1,4]diazepin-4-yl)acetamido)ethyl)amino)-3-oxoprop-1-en-1-yl)phenyl)boronic acid] | √ (A black check mark indicates efficacy of 30% to 70% or higher protein degradation) | √ (A black check mark indicates efficacy of 30% to 70% or higher protein degradation) |  | 
12 | CCNC(=O)C[C@@H]1N=C(c2ccc(Cl)cc2)c2cc(OCCOCCOCCNC(=O)c3cccc(B(O)O)c3)ccc2-n2c(C)nnc21 [BRD-E42] |  | √ (A black check mark indicates efficacy of 30% to 70% or higher protein degradation) | causes degradation of BRD4 | 
13 | CCNC(=O)C[C@@H]1N=C(c2ccc(Cl)cc2)c2cc(OCCOCCOCCOCCNC(=O)c3ccc(B(O)O)cc3)ccc2-n2c(C)nnc21 [BRD-E43] | √ (A black check mark indicates efficacy of 30% to 70% or higher protein degradation) | √ (A black check mark indicates efficacy of 30% to 70% or higher protein degradation) | causes degradation of BRD4 | BRD4 degradation (BRD4 [2]; [4]): causes degradation of BRD4; also recorded: Degradation is noted
14 | COc1ccc2c(c1)C(c1ccc(Cl)cc1)=N[C@@H](CC(=O)NCCOCCOCCNC(=O)c1ccc(B(O)O)cc1)c1nnc(C)n1-2 [BRD-E45] | √ (A black check mark indicates efficacy of 30% to 70% or higher protein degradation) |  |  | BRD4 degradation (BRD4 [2]; [4]): causes degradation of BRD4; Degradation of BRD4, combination with VHL ligand 8305 (BRD4 [1]): √ (A black check mark indicates efficacy of 30% to 70% or higher protein degradation)
